Like-named read-outs stand apart in the source and are kept apart here.
Tests used:
U-118 MG = test: MTT assay, U-118 MG; format: cell-based; conditions: Homo sapiens, 24 h of incubation, read-out: IC50 values ± SEM, MTT assay
Method: (§1) Human glioblastoma cell lines (A172 CRL-1620™, U-87 MG HTB-14™, U-118 MG HTB-15™, T98G CRL-1690™) and the mouse astrocyte cell line (C8-D1A CRL-2541™) were obtained from the American Type Culture Collection (ATCC, Manassas, VA, USA). The cell lines were cultured in complete medium: DMEM (Corning, Kennebunk, ME, USA) for C8-D1A and T98G, and EMEM (ATCC, Manassas, VA, USA) for A172, U-87 MG, U118MG. The media were supplemented with 10% foetal bovine serum (Eurx, Gdansk, Poland) and 1% penicillin-streptomycin solution (Corning, Kennebunk, ME, USA). Cells were cultured in cell culture flasks (Sarstedt, Numbrecht, Germany) at 37 °C in 5% CO2. For experiments, cells were washed with phosphate-buffered saline without calcium and magnesium (Corning, Kennebunk, ME, USA) and treated with 0.05% trypsin and 0.02% EDTA (Corning, Kennebunk, ME, USA). Cells were counted using a Sceptre 3.0 cell counter (Merck Millipore, Burlington, MA, USA) prior to seeding into plates. For 6-well plates, 5 x 10^5 cells/mL were seeded, while for 96-well plates (Sarstedt, Numbrecht, Germany), 1 x 10^5 cells/mL were seeded in 100 μL of the medium.
(§2) The cell lines were seeded in 96-well plates and cultured according to the methodology described in the previous section. Cells were then treated with the novel derivatives MM118 and MM119 and the reference compound temozolomide (TMZ) (Sigma-Aldrich, St. Louis, MO, USA) at concentrations of 0.1, 0.25, 0.5, 1.0, 2.5, 5.0, and 10.0 μM for 24 h. The MTT assay was performed using a solution of 3–(4,5-dimethyl-2-thiazolyl)-2,5-diphenyl-2H-tetrazolium bromide (Sigma-Aldrich, St. Louis, MO, USA) at a concentration of 5 mg/mL in phosphate-buffered saline without calcium and magnesium (Corning, Kennebunk, ME, USA). After 24 h incubation with test compounds, 10 μL MTT solution was added to each well, and cells were incubated for another 2 h at 37 °C. The cells were then lysed in 100 μL lysis buffer (25 mM HCl, 2% acetic acid, 3% DMF, and 5% SDS, adjusted to pH 4.7). Absorbance was measured at 570 nm using an Absorbance 96 microplate reader (Byonoy GmbH, Hamburg, Germany).

A172 = test: MTT assay, A172; format: cell-based; conditions: Homo sapiens, A172, 24 h of incubation
Method: as §1, §2

U-87 MG = test: MTT assay, U-87 MG; format: cell-based; conditions: Homo sapiens, 24 h of incubation
Method: as §1, §2

C8-D1A = test: MTT assay, C8-D1A astrocytes; format: cell-based; conditions: C8-D1A mouse astrocytes, 24 h of incubation
Method: as §1, §2

T98G = test: MTT assay, T98G; format: cell-based; conditions: Homo sapiens, 24 h of incubation
Method: as §1, §2

DNA = system: DNA; parameters: method as in PMID 36835469; conditions: comet assays; cited from earlier work
[1] = A 172, read-out: IC50 values ± SEM, MTT assay
[2] = read-out: IC50 values ± SEM, MTT assay
[3] = 24 h, heading: IC50 values ± SEM, MTT assay

## Cc1nn(-c2ccc(S(=O)(=O)N[C@@H](CO)CC(C)C)cc2)c2nn3nnnc3nc12 [MM124]
U-118 MG
  IC50: > 10 µM
A172; [1]
  IC50: > 10 µM
U-87 MG; [2]
  IC50: > 10 µM
C8-D1A; [2]
  IC50: > 10 µM
T98G; [2]
  IC50: > 10 µM

## COC(=O)C1CC(O)CN1S(=O)(=O)c1ccc(-n2nc(C)c3nc4nnnn4nc32)cc1 (stereo not shown) [MM129, Methyl (Z)-4-hydroxy-1-[4–(7-methyl-5H-pyrazolo[4,3-e]tetrazolo[1,5-b][1]^,[2]^,[4]triazin-5-yl)phenyl-sulfonyl]pyrrolidine-2-carboxylate]
DNA
  DNA damage (single-strand and double-strand breaks): induce DNA damage
U-87 MG; [3]
  IC50: 2.35 µM
C8-D1A; [3]
  IC50: 2.86 µM

## Cc1nn(-c2ccc(S(=O)(=O)NC[C@H](O)CO)cc2)c2nn3nnnc3nc12 [MM126]
U-118 MG
  IC50: > 10 µM
A172; [1]
  IC50: > 10 µM
U-87 MG; [2]
  IC50: > 10 µM
C8-D1A; [2]
  IC50: > 10 µM
T98G; [2]
  IC50: > 10 µM

## Cc1nn(-c2ccc(S(=O)(=O)N[C@H](C)CO)cc2)c2nn3nnnc3nc12 [MM131]
DNA
  DNA damage (single-strand and double-strand breaks): induce DNA damage

## COC(=O)C1CCCN1S(=O)(=O)c1ccc(-n2nc(C)c3nc4nnnn4nc32)cc1 (stereo not shown) [MM128, Methyl 1-[4–(7-methyl-5H-pyrazolo[4,3-e]tetrazolo[1,5-b][1]^,[2]^,[4]triazin-5-yl)phenylsulfonyl]-pyrrolidine-2-carboxylate]
U-118 MG
  IC50: 563 µM
A172; A 172, 24 h, heading: IC50 values ± SEM, MTT assay
  IC50: 1.65 µM
T98G; [3]
  IC50: 1.53 µM

## Cc1nn(-c2ccc(S(=O)(=O)NC[C@@H](O)CO)cc2)c2nn3nnnc3nc12 [MM127]
U-118 MG
  IC50: > 10 µM
A172; [1]
  IC50: > 10 µM
U-87 MG; [2]
  IC50: > 10 µM
C8-D1A; [2]
  IC50: > 10 µM
T98G; [2]
  IC50: > 10 µM
